In US10280163B2 (BeiGene, Ltd., priority 2015, dated 2019) one finds IC50 and EC50 data, which are given here for 36 compounds.

Where two headings read alike, the source gives them in different places.

One assay has as its target T1, Recombinant TDO (Homo sapiens, UniProt P48775).
T1 construct: His tag (C); made in house; host or cells: E. coli
In words: TDO enzymatic assay. As to conditions: 100 nM TDO, 0.5 mM L-tryptophan, read-out: Enzyme IC50 (nM) TDO. In kind it is biochemical. As for the experimental part: Recombinant TDO was overexpressed and purified from E. coli cells with a C-terminal His tag. TDO enzymatic assay was performed using the same methodology as IDO1 enzymatic assay except that 100 nM TDO and 0.5 mM L-tryptophan (Km concentration) were used in the TDO assay.

The next assay addresses T2, Recombinant IDO1 (Homo sapiens, UniProt P14902).
T2 construct: His tag (N); made in house; host or cells: E. coli
In words: IDO1 enzymatic assay. The assay is classed as biochemical. To be noted: 50 nM IDO1, 1.3 mM D-tryptophan, read-out: Enzyme IC50 (nM) IDO1. The procedure, abridged: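 N-terminally His-tagged enzyme from E. coli (50 nM) was incubated with compound, 1.3 mM D-tryptophan, 5 mM ascorbate, 6.25 μM methylene blue and 0.4 mg/mL catalase in 50 mM potassium phosphate pH 7.5, 0.1% BSA for 1.5 h at 24° C. N′-formylkynurenine formation was followed at 321 nm for 1 h; IC50 from rate slopes.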

Assay [1] has as its target T3, cellular IDO1 in HeLa cells (Homo sapiens, UniProt P14902).
T3 construct: endogenous in cells; host or cells: HeLa cells (American Type Tissue Culture Collection), induced with human recombinant IFN-γ
In words: HeLa cell-based IDO1 Kyn (kynurenine) production assay. As to conditions: IFN-γ 100 ng/mL, 48 hours. The procedure, abridged:
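IFN-γ-induced HeLa cells (100 ng/mL) in phenol red-free DMEM with 0.4 mM L-Trp, compounds added together with IFN-γ, 48 h at 37 °C. Supernatant Kyn read at 480 nm after TCA precipitation and 4-(dimethylamino)benzaldehyde reaction. IC50 from four-parameter logistic fit.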

The mark [2] stands for this setting: Table 1, 5-substituted imidazo[1,5-a]pyridines.
Where [3] appears, read: Table 2, 8-substituted imidazo[1,5-a]pyridines.

T1 sequence (P48775 whole entry): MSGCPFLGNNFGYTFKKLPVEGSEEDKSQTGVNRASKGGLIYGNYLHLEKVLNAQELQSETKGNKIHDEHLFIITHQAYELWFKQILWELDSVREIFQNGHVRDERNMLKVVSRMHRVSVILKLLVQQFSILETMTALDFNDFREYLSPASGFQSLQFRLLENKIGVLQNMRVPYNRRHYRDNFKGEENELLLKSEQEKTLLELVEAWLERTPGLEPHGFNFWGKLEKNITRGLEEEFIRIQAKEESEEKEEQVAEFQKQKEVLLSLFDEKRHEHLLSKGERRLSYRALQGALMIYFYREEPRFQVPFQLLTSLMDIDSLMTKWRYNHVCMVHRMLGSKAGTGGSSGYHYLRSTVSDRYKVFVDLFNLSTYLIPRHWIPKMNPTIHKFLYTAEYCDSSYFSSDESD
T2 sequence (P14902 whole entry): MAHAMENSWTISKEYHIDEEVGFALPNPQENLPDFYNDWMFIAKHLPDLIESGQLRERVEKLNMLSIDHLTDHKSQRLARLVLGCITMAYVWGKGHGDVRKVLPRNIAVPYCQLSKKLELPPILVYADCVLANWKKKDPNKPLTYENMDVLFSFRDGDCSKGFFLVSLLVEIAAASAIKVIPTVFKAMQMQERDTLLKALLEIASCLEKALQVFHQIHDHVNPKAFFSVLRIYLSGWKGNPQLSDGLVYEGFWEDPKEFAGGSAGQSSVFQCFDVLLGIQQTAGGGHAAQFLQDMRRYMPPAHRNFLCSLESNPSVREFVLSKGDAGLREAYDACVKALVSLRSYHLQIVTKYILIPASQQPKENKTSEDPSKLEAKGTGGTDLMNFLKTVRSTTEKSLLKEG
T3 sequence (P14902 whole entry): as above

Usually IC50 stands for the concentration that gives 50% inhibition. By EC50 is commonly meant the concentration giving half of the maximal effect. Low readings indicate higher potency in that assay, high ones lower potency in that assay. Regarding `OC(c1cccc2cncn12)C1CCCCC1` (single isomer, unassigned) [Example A001a], the IC50 on Recombinant TDO (setting [2]) came out at 610 nM; at Recombinant IDO1 (setting [2]), 41 nM. In addition, in assay [1] (setting [2]), the EC50 is over 10000 nM.
As to `OC(CC1CCCCC1)c1cc(Cl)cc2cncn12` (single isomer, unassigned) [Example A102a], the IC50 came to 73 nM on Recombinant TDO (setting [2]) and 15 nM on Recombinant IDO1 (setting [2]). In assay [1] (setting [2]), this compound registered a 50% effective concentration (EC50) of 346 nM.
On the same counts, the results for `OC(CC1CCCCC1)c1cc(Cl)cc2cncn12` (single isomer, unassigned) [Example A102b] are 1200 nM, 510 nM and over 10000 nM.
On the same counts, the results for `OC(c1cc(C(F)(F)F)cc2cncn12)C1CCCCC1` (single isomer, unassigned) [Example A109a] are 97 nM, 15 nM and 2100 nM.
In the same order, the values of `OC(c1cc(C(F)(F)F)cc2cncn12)C1CCCCC1` (single isomer, unassigned) [Example A109b] are 1200 nM, 1400 nM and over 10000 nM.
In the case of `OC(CC1CCCCC1)c1cc(C(F)(F)F)cc2cncn12` (single isomer, unassigned) [Example A114a], the IC50 was 2600 nM on Recombinant TDO (setting [2]) and 890 nM on Recombinant IDO1 (setting [2]). This compound also displayed an EC50 in assay [1] (setting [2]) of over 10000 nM.
In the same order, the values of `OC(CC1CCCCC1)c1cc(C(F)(F)F)cc2cncn12` (single isomer, unassigned) [Example A114b] are 170 nM, 74 nM and 5430 nM.
In the same order, the values of `OC(c1c(Cl)ccc2cncn12)C1CCCCC1` (single isomer, unassigned) [Example A116a] are 610 nM, 11 nM and 270 nM.
In the same order, the values of `OC(c1c(Cl)ccc2cncn12)C1CCCCC1` (single isomer, unassigned) [Example A116b] are 67000 nM, 4800 nM and over 10000 nM.
As to `OC(CC1CCCCC1)c1c(Cl)ccc2cncn12` (single isomer, unassigned) [Example A117a], the values for the half-inhibitory concentration (IC50) at Recombinant TDO (setting [2]) and on Recombinant IDO1 (setting [2]) were 4100 nM and 11 nM, respectively. This compound had an EC50 in assay [1] (setting [2]) of 92 nM.
In the case of `OC(CC1CCCCC1)c1c(Cl)ccc2cncn12` (single isomer, unassigned) [Example A117b], the IC50 on Recombinant TDO (setting [2]) was 35000 nM; on Recombinant IDO1 (setting [2]), 1600 nM. The compound further displayed an EC50 in assay [1] (setting [2]) of over 10000 nM.
On the same counts, the results for `OC(c1c(Br)ccc2cncn12)C1CCCCC1` (single isomer, unassigned) [Example A118a] are 1700 nM, 14 nM and 346 nM.
On the same counts, the results for `OC(c1c(Br)ccc2cncn12)C1CCCCC1` (single isomer, unassigned) [Example A118b] are 53000 nM, 1600 nM and over 10000 nM.
In the same order, the values of `OC(CC1CCCCC1)c1c(Br)ccc2cncn12` (single isomer, unassigned) [Example A119a] are 14000 nM, 14 nM and 66 nM.
In the case of `OC(CC1CCCCC1)c1c(Br)ccc2cncn12` (single isomer, unassigned) [Example A119b], the IC50 amounted to 38000 nM on Recombinant TDO (setting [2]) and 1300 nM at Recombinant IDO1 (setting [2]). The concentration for a half-maximal effect (EC50) in assay [1] (setting [2]) is 9430 nM.
On the same counts, the results for `OC(CC1CCCCC1)c1c(I)ccc2cncn12` (single isomer, unassigned) [Example A124a] are 8800 nM, 9 nM and 92 nM.
As for `OC(CC1CCCCC1)c1c(I)ccc2cncn12` (single isomer, unassigned) [Example A124b], the IC50 on Recombinant TDO (setting [2]) came out at 95000 nM; on Recombinant IDO1 (setting [2]) it was 1100 nM. In assay [1] (setting [2]), the EC50 was over 10000 nM.
As to `OC(CC1CCCCC1)c1c(C2CC2)ccc2cncn12` (single isomer, unassigned) [Example A139a], the IC50 is 1800 nM at Recombinant TDO (setting [2]) and 11 nM at Recombinant IDO1 (setting [2]).
On the same counts, the results for `OC(CC1CCCCC1)c1c(C2CC2)ccc2cncn12` (single isomer, unassigned) [Example A139b] are 13000 nM and 4500 nM.
In the same order, the values of `O[C@@H](c1cc(Cl)cc2cncn12)C1CCCCC1` [Example A101b, (R)-(7-chloroimidazo[1,5-a]pyridin-5-yl)(cyclohexyl)methanol] are 230 nM and 890 nM.
Turning to `OC(CC1CCCCC1)c1cc(C(F)(F)F)cc2cncn12` (centres unmarked) [Example A114, 2-cyclohexyl-1-(7-(trifluoromethyl)imidazo[1,5-a]pyridin-5-yl)ethan-1-ol], the concentration for half-maximal inhibition (IC50) is 420 nM at Recombinant TDO (setting [2]) and 260 nM on Recombinant IDO1 (setting [2]).
Regarding `OC(c1c(C(F)(F)F)ccc2cncn12)C1CC1` (centres unmarked) [Example A132, cyclopropyl(6-(trifluoromethyl)imidazo[1,5-a]pyridin-5-yl)methanol], the IC50 came out at 75000 nM on Recombinant TDO (setting [2]) and 210 nM on Recombinant IDO1 (setting [2]).
On the same counts, the results for `OC(c1c(Cl)c(Br)cc2cncn12)C1CC1` (centres unmarked) [Example A150, (7-bromo-6-chloroimidazo[1,5-a]pyridin-5-yl)(cyclooropyl)methanol] are 200 nM and 130 nM.
In the same order, the values of `OC(c1c(Cl)c(C(F)(F)F)cc2cncn12)C1CCCCC1` (centres unmarked) [Example A155, (6-chloro-7-(trifluoromethyl)imidazo[1,5-a]pyridin-5-Yl)(cyclohexyl)methanol] are 1600 nM and 1000 nM.
In the case of `OC(c1cccn2cncc12)C1CCCC1` (centres unmarked) [Example B002, Cyclopentyl(imidazo[1,5-a]pyridin-8-yl)methanol], the half-maximal inhibitory concentration (IC50) was found to be 810 nM at Recombinant TDO (setting [3]) and 2000 nM on Recombinant IDO1 (setting [3]).
In the same order, the values of `OC(c1ccccc1)c1cccn2cncc12` (centres unmarked) [Example B004, Imidazo[1,5-a]pyridin-8-yl(phenyl)methanol] are 3900 nM and 17000 nM.
On the same counts, the results for `OC(c1cccn2cncc12)C1CCCCCC1` (centres unmarked) [Example B005, Cycloheptyl(imidazo[1,5-a]pyridin-8-yl)methanol] are 740 nM and 990 nM.
As to `NCC(=O)N1CCCC(C(O)c2c(C3CC3)ccn3cncc23)C1` (centres unmarked) [Example B132, 2-Amino-1-(3-((7-cyclopropylimidazo[1,5-a]pyridin-8-yl)(hydroxy)methyl)piperidin-1-yl)ethan-1-one], the IC50 on Recombinant IDO1 (setting [3]) is 13000 nM. The compound also yielded an EC50 in assay [1] (setting [3]) of over 10000 nM.
On the same counts, the results for `O=C(c1ccccc1)N1CCCC(C(O)c2c(C3CC3)ccn3cncc23)C1` (centres unmarked) [Example B134, (3-((7-Cyclopropylimidazo[1,5-a]pyridin-8-yl)(hydroxy)methyl)piperidin-1-yl)(phenyl) methanone] are 2000 nM and over 10000 nM.
On the same counts, the results for `OCC1(C(O)c2c(C3CC3)ccn3cncc23)CCCCC1` (centres unmarked) [Example B136, (7-Cyclopropylimidazo[1,5-a]pyridin-8-yl)(1-(hydroxymethyl)cyclohexyl)methanol] are 760 nM and 286 nM.
Take `CCOC(COCC1(C(O)c2c(C3CC3)ccn3cncc23)CCCCC1)OCC` (centres unmarked) [Example B137, (7-Cyclopropylimidazo[1,5-a]pyridin-8-yl)(1-((2,2-diethoxyethoxy)methyl)cyclohexyl)methanol]: at Recombinant IDO1 (setting [3]), the IC50 was determined as 2200 nM. Further, the half-maximal effective concentration (EC50) in assay [1] (setting [3]) was 3290 nM.
For the compound `O=C(O)C1CCCC(C(O)c2c(C3CC3)ccn3cncc23)C1` (centres unmarked) [Example B138, 3-((7-Cyclopropylimidazo[1,5-a]pyridin-8-yl)(hydroxy)methyl)cyclohexane-1-carboxylic acid], the half-maximal inhibitory concentration (IC50) on Recombinant IDO1 (setting [3]) is 1000 nM. Further, in assay [1] (setting [3]), the half-maximal effective concentration (EC50) was over 10000 nM.
In the same order, the values of `OC(c1c(C2CC2)ccn2cncc12)C1CC2CC2C1` (centres unmarked) [Example B139, bicyclo[3.1.0]hexan-3-yl(7-cyclopropylimidazo[1,5-a]pyridin-8-yl)methanol] are 85 nM and 199 nM.
In the same order, the values of `OC(c1c(C2CC2)ccn2cncc12)C1CCC2CC2C1` (centres unmarked) [Example B140, bicyclo[4.1.0]heptan-3-yl(7-cyclopropylimidazo[1,5-a]pyridin-8-yl)methanol] are 71 nM and 147 nM.
On the same counts, the results for `OC(c1c(C2CC2)ccn2cncc12)C1C=CCCC1` (centres unmarked) [Example B141, cyclohex-2-en-1-yl(7-cyclopropylimidazo[1,5-a]pyridin-8-yl)methanol] are 45 nM and 1700 nM.
As to `OC1CC2CC1CC2C(O)c1c(C2CC2)ccn2cncc12` (centres unmarked) [Example B142, 5-((7-cyclopropylimidazo[1,5-a]pyridin-8-yl)(hydroxy)methyl)bicyclo[2.2.1]heptan-2-ol], the IC50 on Recombinant IDO1 (setting [3]) was 1300 nM. The compound further yielded an EC50 in assay [1] (setting [3]) of 6320 nM.
